Patent US12441716B2, “Compositions and methods for increasing muscle mass and oxidative metabolism” (The Regents of the University of California, priority 2019, dated 2025)
Each block holds one molecule with its values, some of them ahead of it.

Key:
[1] = test system: endogenous Myosin light chain-2 (Myl2) expression in C2C12 cells; test: Myl2 expression in C2C12 cells, RT-PCR normalized to GAPDH; format: cell-based; conditions: for Myl2 Relative expression/Gapdh at 2.5 μM: C2C12 cells, relative to GAPDH house-keeping control gene
Procedure: Bioactivity data of AMBMP analogs 1-6, 17, 18, and 25. Dose dependent effect of AMBMP analogs 1-6, 17, 18, and 25 on endogenous Myosin light chain-2 (Myl2) expression in C2C12 cells is shown in FIG. 16 A.
Effect of 2.5 μM AMBMP analog 1-6, 8, 17, 21, 25, 38, 39, and 40 on Myl2 expression relative to GAPDH (house-keeping control gene) in C2C12 cells is shown in Table 1. Myl2 is a marker of CaMKIIβ activity.
AMBMP analog 40 was tested in C2C12 myogenic cells for its ability to induce expression of Myl2. C2C12 cells were treated with AMBMP or AMBMP analog 40 for 48 hrs (concentrations are indicated on the graph); DMSO was used as a negative control. Expression of Myl2 was assessed by RT-PCR and normalized to GAPDH as a house-keeping control gene.

[2] = test system: C2C12 myogenic cells; test: Tolerance of C2C12 myogenic cells to compound; format: cell-based; conditions: data not shown
[3] = molecular target: T1, CaMKIIβ (Mus musculus, UniProt P28652); test: CaMKIIβ activity in mice treated for 2 weeks; format: in vivo; conditions: i.p. 7.5 mg/kg/day for 2 weeks
T1 construct: from tissue; host or cells: tissue of treated C3KO and WT mice
Description: (§1) Shown in FIG. 14, C3KO mice treated with AMBMP have normalized CaMKIIβ activity, but AKT or AMPK signaling are not affected.

[4] = test system: C3KO mice; test: Exercise performance after endurance training in C3KO mice; format: in vivo; conditions: i.p. 7.5 mg/kg/day for 14 days, 3-week endurance training
Description: Shown in FIG. 13, AMBMP treatment leads to improved exercise performance. Mice were subjected to endurance training over a 3-week period while being treated. Exercise performance was compared between pre and post exercise condition. Wild type (WT) mice were not treated with AMBMP.

[5] = test system: AKT; test: AKT signaling in treated C3KO mice; format: in vivo; conditions: i.p. 7.5 mg/kg/day for 2 weeks
Description: as §1

[6] = test system: C3KO mice; test: Muscle fiber cross-sectional area in treated C3KO mice; format: in vivo; conditions: 7.5 mg/kg/day for 14 days, i.p. or subQ injection
Procedure: (§2) Average cross-sectional area (CSA) measured in muscle cross sections after staining for fiber type. […] A) C3KO mice i.p. injected with AMBMP hydrochloride (7.5 mg/kg/day) for 14 days. B) C3KO mice treated AMBMP hydrochloride (7.5 mg/kg/day) for 14 days by subcutaneous (subQ) injection.

[7] = test system: C3KO mice; test: Mitochondrial function / mitochondrial content (NADH staining) in muscles of treated C3KO mice; format: in vivo
Procedure: as §2
One set of C3KO mice were i.p. injected with AMBMP hydrochloride (7.5 mg/kg/day) for 14 days, another set of C3KO mice were i.p. injected with AMBMP hydrochloride (15 mg/kg/day) for 14 days and a control set of C3KO mice were not treated with AMBMP. Percent of total fibers with high mitochondrial content and intermediate mitochondrial content increased with AMBMP treatment in a dose dependent manner, and percent of total fibers with low mitochondrial content decreased with AMBMP treatment in a dose dependent manner (FIG. 12A). […] Quantification of NADH staining on plantaris muscles from AMBMP-treated mice (either 7.5 or 15 mg/kg, for 2 weeks (wks)) shown as a ratio of FOG:FG fibers. *p<0.05.

[8] = test system: AMPK; test: AMPK signaling in treated C3KO mice; format: in vivo; conditions: i.p. 7.5 mg/kg/day for 2 weeks
Description: as §1

[9] = molecular target: T1, CaMKIIβ; test: CaMKIIβ activation in mouse skeletal muscles after injection, western blot with anti-phospho CaMKIIβ antibody; format: in vivo; conditions: mice, 10 mg/kg intraperitoneally; muscles collected 2, 4 and 6 hrs after injection; DMSO control
Procedure: Mice were injected intraperitoneally with 10 mg/kg of AMBMP analog 3. Skeletal muscles were collected at 2, 4 and 6 hrs after injection. Mice injected with DMSO were used as a control group.

[10] = log P (partition coefficient between organic and aqueous phase); format: physicochemical
Description: It has been determined that compounds having a chemical structure of Formula I and/or Formula VII, or a pharmaceutically acceptable salt or solvate thereof, can increase muscle mass and muscle function. These chemicals can be effective in treating muscular dystrophy, such as limb girdle muscular dystrophy type 2A/R1/D1. Not to be bound by theory, it is believed that these compounds may provide their biological effect by over-riding the CAMKII signaling block by activating CaMKII. Accordingly, these can increase muscle size, mitochondrial complex I and II activity, expression of genes that comprise the slow fiber phenotype and running performance. Embodiments of the current disclosure is directed to compositions and methods of use for compounds having a chemical structure of Formula I and/or Formula VII, or a pharmaceutically acceptable salt or solvate thereof, that show similar or higher activity on CAMKII signaling as of AMBMP, but are less toxic and/or more soluble than AMBMP (Formula VI). […] One or more compounds having a chemical structure of Formula I and/or Formula VII, can have a EC50 potency of <1 uM on endogenous myosin light chain 2 (Myl2) promoter in C2C12 cells. The compounds can have a solubility >10 uM in water at standard temperature and pressure. […] Toxicity can be measured as a dose dependent effect of the compounds on cell death of C2C12 cells.

[11] = test system: Capn3−/− muscles; test: Percent slow myosin heavy chain positive fibers in soleus of calpainopathy mice; format: in vivo; conditions: daily for 2 wks at 30 mg/kg subQ

T1 sequence (P28652 whole entry): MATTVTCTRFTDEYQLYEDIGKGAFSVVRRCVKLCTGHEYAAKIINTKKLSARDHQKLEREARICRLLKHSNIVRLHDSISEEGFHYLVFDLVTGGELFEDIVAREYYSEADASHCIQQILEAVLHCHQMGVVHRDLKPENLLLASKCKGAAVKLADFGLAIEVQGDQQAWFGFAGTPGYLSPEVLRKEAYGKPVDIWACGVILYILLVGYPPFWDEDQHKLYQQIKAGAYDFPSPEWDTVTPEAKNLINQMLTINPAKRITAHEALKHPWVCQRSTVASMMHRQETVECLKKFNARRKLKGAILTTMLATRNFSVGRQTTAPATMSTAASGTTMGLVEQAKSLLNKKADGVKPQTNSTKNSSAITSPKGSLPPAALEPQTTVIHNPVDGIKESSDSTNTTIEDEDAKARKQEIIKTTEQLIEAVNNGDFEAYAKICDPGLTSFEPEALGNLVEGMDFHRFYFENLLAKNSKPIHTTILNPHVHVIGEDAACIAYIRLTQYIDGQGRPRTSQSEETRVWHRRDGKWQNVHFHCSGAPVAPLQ

SMILES: Nc1nc(NCc2ccc3c(c2)OCO3)cc(-c2ccc(OC(F)(F)F)cc2)n1 [AMBMP Analog 17]
- Myl2 Relative expression/Gapdh at 2.5 μM [1]: 0.2

SMILES: COc1cc(O)cc(-c2cc(NCc3ccc4c(c3)OCO4)nc(N)n2)c1 [AMBMP Analog 40, 3-(2-amino-6-((benzo[d][1,3]dioxol-5-ylmethyl)amino)pyrimidin-4-yl)-5-methoxyphenol]
- Myl2 Relative expression/Gapdh at 2.5 μM [1]: 1.2
- increase of Myl2 expression ([1]; C2C12 myogenic cells treated 48 hrs (1.25 μM, 5 μM), RT-PCR normalized to GAPDH, DMSO negative control): 2.5-2.9 fold
- tolerance by the cells compared to AMBMP [2]: better tolerated

- CaMKIIβ activity over untreated control ([3]; C3KO mice): increased CaMKIIβ activity
- CaMKIIβ activity over untreated control ([3]; WT mice): increased CaMKIIβ activity
SMILES: COc1cccc(-c2cc(NCc3ccc4c(c3)OCO4)nc(N)n2)c1.Cl [AMBMP hydrochloride]
- exercise performance pre vs post endurance training [4]: show a training effect
- AKT signaling [5]: without impacting
- cross-sectional area of slow fibers [6]: significantly increased
- cross-sectional area, both fiber types [6]: increase
- mitochondrial function compared to control ([7]; i.p. 7.5 mg/kg/day for 14 days): improved mitochondrial function
- mitochondrial content ([7]; i.p. 7.5 or 15 mg/kg/day for 14 days, plantaris muscles): increased mitochondrial content in a dose dependent manner
- AMPK signaling [8]: without impacting

- phospho-CaMKIIβ (P-CaMK) in skeletal muscles [9]: CaMKIIβ activation
- logP [10]: 2.47
SMILES: Nc1nc(NCc2ccc3c(c2)OCO3)cc(-c2cccc(O)c2)n1 [AMBMP Analog 3, 3-(2-amino-6-((benzo[d][1,3]dioxol-5-ylmethyl)amino)pyrimidin-4-yl)phenol]
- Myl2 Relative expression/Gapdh at 2.5 μM [1]: 0.4

SMILES: COc1cccc(-c2cc(NCc3ccc4c(c3)OCO4)nc(N)n2)c1 [AMBMP]
- Myl2 Relative expression/Gapdh at 2.5 μM [1]: 1.4
- % slow myosin heavy chain positive fibers in soleus [11]: Statistically significant shift

SMILES: CCCOc1cccc(-c2cc(NCc3ccc4c(c3)OCO4)nc(N)n2)c1 [AMBMP Analog 5]
- Myl2 Relative expression/Gapdh at 2.5 μM [1]: 0.6

SMILES: CCOc1cccc(-c2cc(NCc3ccc4c(c3)OCO4)nc(N)n2)c1 [AMBMP Analog 4]
- Myl2 Relative expression/Gapdh at 2.5 μM [1]: 2

SMILES: CC(C)(C)Oc1cccc(-c2cc(NCc3ccc4c(c3)OCO4)nc(N)n2)c1 [AMBMP Analog 6]
- Myl2 Relative expression/Gapdh at 2.5 μM [1]: 1.2
